In PMC8425032, “Functional characterization of a highly specific L-arabinose transporter from Trichoderma reesei” (Microbial Cell Factories, 2021):

Experiments:
Type in all cases: cell-based
A. thaliana STP7 = target: T1, A. thaliana STP7 (Arabidopsis thaliana, UniProt O04249); test: […]-L-arabinose uptake, yeast cells; conditions: 5 mM L-arabinose, sodium citrate pH 4.5, 28 °C; labelled compound
T1 construct: no tag mentioned
T1 sequence (O04249 1-513): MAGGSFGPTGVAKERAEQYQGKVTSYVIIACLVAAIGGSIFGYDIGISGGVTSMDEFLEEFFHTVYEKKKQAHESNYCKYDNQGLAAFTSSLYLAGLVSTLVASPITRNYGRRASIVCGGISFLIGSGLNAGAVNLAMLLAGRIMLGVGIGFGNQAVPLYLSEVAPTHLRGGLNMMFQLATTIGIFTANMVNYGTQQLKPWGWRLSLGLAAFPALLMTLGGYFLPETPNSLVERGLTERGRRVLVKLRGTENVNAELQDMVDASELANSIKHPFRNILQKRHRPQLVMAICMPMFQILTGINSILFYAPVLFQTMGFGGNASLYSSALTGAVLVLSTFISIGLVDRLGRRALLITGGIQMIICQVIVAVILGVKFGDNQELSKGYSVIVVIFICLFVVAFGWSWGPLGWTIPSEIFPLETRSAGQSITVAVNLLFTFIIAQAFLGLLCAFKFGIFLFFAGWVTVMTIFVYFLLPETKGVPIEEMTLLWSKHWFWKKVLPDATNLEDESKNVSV

P. chrysogenum AraT = target: T2, P. chrysogenum AraT (Penicillium rubens, UniProt B6HE12); test: […]-L-arabinose uptake, yeast cells; conditions: 0.167 mM L-arabinose at pH 6.5 and 5 mM at pH 4.5; 28 °C; labelled compound
T2 construct: gene Pc20g01790; no tag mentioned
T2 sequence (B6HE12 1-511): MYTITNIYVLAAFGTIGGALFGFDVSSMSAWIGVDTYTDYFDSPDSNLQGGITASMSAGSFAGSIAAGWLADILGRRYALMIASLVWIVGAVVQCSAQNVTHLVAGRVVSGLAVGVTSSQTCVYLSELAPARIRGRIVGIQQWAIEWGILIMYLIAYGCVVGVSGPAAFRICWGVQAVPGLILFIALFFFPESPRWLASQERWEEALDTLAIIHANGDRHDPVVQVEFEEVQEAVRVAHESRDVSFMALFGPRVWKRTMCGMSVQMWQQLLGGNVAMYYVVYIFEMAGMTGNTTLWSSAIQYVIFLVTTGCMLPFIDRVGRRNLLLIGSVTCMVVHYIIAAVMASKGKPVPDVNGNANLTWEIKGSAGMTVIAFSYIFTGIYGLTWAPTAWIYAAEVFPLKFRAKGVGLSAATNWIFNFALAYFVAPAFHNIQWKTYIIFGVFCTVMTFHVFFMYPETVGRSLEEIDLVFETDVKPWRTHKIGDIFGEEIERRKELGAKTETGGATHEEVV

Trire2_104072 [1] = target: T3, Trire2_104072 (Trichoderma reesei, UniProt Q1EG32, H388P, form not given); test: two-electrode voltage clamp, sugar-induced current, Xenopus oocytes; conditions: pH 5.5, -50 mV, sodium-free ND-96 buffer; proton symport
T3 construct: gene xlt1; full-length RUT-C30 version, yeast codon-optimised synthetic gene; no tag mentioned; P388H version XLT1 from plasmid B1687

Trire2_104072 [2] = target: T4, Trire2_104072 (Trichoderma reesei, UniProt Q1EG32); test: inhibition of […]-L-arabinose uptake, yeast cells; conditions: fivefold excess over 0.167 mM labelled L-arabinose, pH 6.5, 28 °C
T4 construct: gene xlt1; full-length RUT-C30 version, yeast codon-optimised synthetic gene; no tag mentioned; P388H version XLT1 from plasmid B1687

Trire2_104072 [3] = target: T3, Trire2_104072; test: inhibition of […]-L-arabinose uptake, yeast cells; conditions: 833 µM; fivefold excess over 0.167 mM labelled L-arabinose, pH 6.5, 28 °C

T3 sequence (Q1EG32 entry or part of it H388P, form open): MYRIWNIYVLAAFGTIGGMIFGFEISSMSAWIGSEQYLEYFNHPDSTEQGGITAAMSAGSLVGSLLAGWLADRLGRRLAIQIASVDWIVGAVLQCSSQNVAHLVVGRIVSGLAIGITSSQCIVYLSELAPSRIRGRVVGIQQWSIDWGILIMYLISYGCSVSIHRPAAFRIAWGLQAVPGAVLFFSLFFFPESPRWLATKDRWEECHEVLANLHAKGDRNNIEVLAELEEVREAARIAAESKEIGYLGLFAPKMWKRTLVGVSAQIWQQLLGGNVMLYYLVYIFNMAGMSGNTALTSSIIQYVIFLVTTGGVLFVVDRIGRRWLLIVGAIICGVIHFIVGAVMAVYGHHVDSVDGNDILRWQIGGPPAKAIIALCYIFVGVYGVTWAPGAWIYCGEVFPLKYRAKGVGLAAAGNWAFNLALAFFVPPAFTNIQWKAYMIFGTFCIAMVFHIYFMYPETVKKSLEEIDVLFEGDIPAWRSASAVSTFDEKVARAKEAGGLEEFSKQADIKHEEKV
T4 sequence (Q1EG32 entry or part of it): as the sequence (Q1EG32 entry or part of it H388P, form open) above, with P388H counted along it

Km (Trire2_104072 [1]) [mM] | % inhibition at 0.833 mM (Trire2_104072 [2]) [%] | Inhibition of L-arabinose uptake by competing sugar (glucose in 22.1, xylose in 22.2) (Trire2_104072 [3]) [%] | Structure (SMILES) | 14C-L-arabinose uptake, yeast cells (A. thaliana STP7) | 14C-L-arabinose uptake, yeast cells (P. chrysogenum AraT)
0.207 ± 0.079 |  |  | OC1OC[C@H](O)[C@H](O)[C@H]1O (stereo partly drawn) [L-arabinose] | The strain expressing A. thaliana STP7 had also significantly higher uptake | XLT1 or P. chrysogenum AraT had significantly higher L-arabinose uptake rates than the control strain
9.16 ± 3.35 | 13.4±7.9 | 10.9±6.3 | OC1OC[C@@H](O)[C@H](O)[C@H]1O (stereo partly drawn) [D-xylose] |  | 
 | 4.5±17.6 | 0±8.2 | OC[C@H]1OC(O)[C@H](O)[C@@H](O)[C@@H]1O (stereo partly drawn) [D-glucose] |  | 
